How the values were obtained:
PDE5A1 = target: T1, PDE5A1 (Homo sapiens, UniProt O76074); assay: Inhibition of type 5 phosphodiesterase (PDE5) activity, modified SPA test with human platelet lysate; type: biochemical; conditions: 0.5 μM cGMP, read-out: PDE5A1 inhibitory values [measured as −log IC50 (mol/l)] (converted)
T1 construct: from tissue; host or cells: human platelets from fresh donor blood (10,000 x g supernatant of sonicated lysate)
In short: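 Scintillation proximity assay with [3H]cGMP tracer at 0.5 μM total cGMP, stopped after 15 min with beads containing IBMX. PDE3 and PDE2 activities suppressed with motapizone (1 μM) and a PDE2 inhibitor (10 nM). Human platelet supernatant served as the enzyme, with compound preincubated 5 min at 37° C; IC50 values from concentration-effect curves.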

PDE4B1 = target: T2, PDE4B1 (Homo sapiens, UniProt Q07343); assay: Inhibition of type 4 phosphodiesterase (PDE4) activity, modified SPA test with recombinant PDE4B1 expressed in SF21 insect cells; type: biochemical; conditions: recombinant PDE4B1, 0.5 μM cAMP, read-out: PDE4B1 inhibitory values [measured as −log IC50 (mol/l)] (converted)
T2 construct: made in house; host or cells: SF21 insect cells (baculovirus; pCRBac vector), 1000 x g supernatant of homogenate
Method: Method for Measuring Inhibition of the Type 4 Phosphodiesterase (PDE4) Activity:
The PDE4B1 (GB no. L20966) was a gift of Prof. M. Conti (Stanford University, USA). It was amplified from the original plasmid (pCMV5) via PCR with primers Rb18 (5′-[…]-3′) and Rb10 (5′-[…]-3′) and cloned into the pCRBac vector (Invitrogen, Groningen, NL).
The recombinant baculovirus was prepared by means of homologous recombination in SF9 insect cells. The expression plasmids were cotransfected with Baculo-Gold DNA (Pharmingen, Hamburg) using a standard protocol (Pharmingen, Hamburg). Wt virus-free recombinant virus supernatants were selected using plaque assay methods. After that, high-titre virus supernatants were prepared by amplifying 3 times. PDE4B1 was expressed in SF21 cells by infecting 2×10^6 cells/ml with an MOI (multiplicity of infection) between 1 and 10 in the serum-free medium Insect Express Sf9-S2 (PAA, Pasching, Austria). The cells were cultured at 28° C. for 48-72 hours, after which they were pelleted for 5-10 min at 1000×g and 4° C.
The SF21 insect cells were resuspended, at a concentration of approx. 10^7 cells/ml, in ice-cold (4° C.) homogenization buffer (20 mM Tris, pH 8.2, containing the following additions: 140 mM NaCl, 3.8 mM KCl, 1 mM EGTA, 1 mM MgCl2, 10 mM (3-mercaptoethanol, 2 mM benzamidine, 0.4 mM Pefablock, 10 μM leupeptin, 10 μM pepstatin A, 5 μM trypsin inhibitor) and disrupted by ultrasonication. The homogenate was then centrifuged for 10 min at 1000×g and the supernatant was stored at −80° C. until subsequent use (see below). The protein content was determined by the Bradford method (BioRad, Munich) using BSA as the standard.
PDE4B1 activity was inhibited by the compounds according to the present subject matter in a modified SPA (scintillation proximity assay) test, supplied by Amersham Biosciences (see procedural instructions “phosphodiesterase [3H]cAMP SPA enzyme assay, code TRKQ 7090”), carried out in 96-well microtitre plates (MTP's). The test volume is 100 μl and contains 20 mM Tris buffer (pH 7.4), 0.1 mg/ml of BSA, 5 mM Mg^2+, 0.5 μM cAMP (including about 50,000 cpm of [3H]cAMP), 1 μl of the respective substance dilution in DMSO and sufficient recombinant PDE (1000×g supernatant, see above) to ensure that 10-20% of the cAMP is converted under the said experimental conditions. […] After a preincubation of 5 min at 37° C., the reaction is started by adding the substrate (cAMP) and the assays are incubated for a further 15 min; after that, they are stopped by adding SPA beads (50 μl). In accordance with the manufacturer's instructions, the SPA beads had previously been resuspended in water, but were then diluted 1:3 (v/v) in water; the diluted solution also contains 3 mM IBMX to ensure a complete PDE activity stop. After the beads have been sedimented (>30 min), the MTP's are analyzed in commercially available luminescence detection devices. The corresponding IC50 values of the compounds for the inhibition of PDE4B1 activity are determined from the concentration-effect curves by means of non-linear regression.

T2 sequence (Q07343 whole entry): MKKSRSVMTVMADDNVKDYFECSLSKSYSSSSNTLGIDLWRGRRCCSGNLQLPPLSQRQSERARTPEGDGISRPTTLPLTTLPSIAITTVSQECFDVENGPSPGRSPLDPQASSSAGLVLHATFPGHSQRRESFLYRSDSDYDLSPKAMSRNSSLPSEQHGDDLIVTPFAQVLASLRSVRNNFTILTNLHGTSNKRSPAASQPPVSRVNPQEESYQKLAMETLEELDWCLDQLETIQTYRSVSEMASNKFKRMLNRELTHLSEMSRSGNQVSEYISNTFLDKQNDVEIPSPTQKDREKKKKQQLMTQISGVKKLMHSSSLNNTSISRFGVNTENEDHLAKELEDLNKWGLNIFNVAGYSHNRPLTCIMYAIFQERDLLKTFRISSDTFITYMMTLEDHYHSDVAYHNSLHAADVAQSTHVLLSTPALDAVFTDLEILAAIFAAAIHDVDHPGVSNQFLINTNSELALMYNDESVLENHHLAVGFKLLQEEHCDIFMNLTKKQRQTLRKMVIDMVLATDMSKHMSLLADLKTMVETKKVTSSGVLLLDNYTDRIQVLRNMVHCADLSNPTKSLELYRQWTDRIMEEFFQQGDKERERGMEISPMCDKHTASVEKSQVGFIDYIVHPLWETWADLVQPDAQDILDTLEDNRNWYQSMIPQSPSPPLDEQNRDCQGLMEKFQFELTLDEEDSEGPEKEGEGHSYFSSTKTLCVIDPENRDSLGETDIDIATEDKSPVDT

Structure (SMILES) | IC50 (PDE5A1) [nM] | IC50 (PDE4B1) [nM]
COCC(=O)N[C@H]1CC[C@H](NC(=O)c2c(C)[nH]c3c(-c4cc(C(F)F)ccc4OCC4CC4)ncnc23)[C@@H](C)C1 (relative stereo) [Example P141, 4-[2-(Cyclopropylmethoxy)-5-(difluoromethyl)phenyl]-N-{(1S*,2S*,4S*)-4-[(methoxyacetyl)amino]-2-methylcyclohexyl}-6-methyl-5H-pyrrolo[3,2-d]pyrimidine-7-carboxamide] | < 1 | < 100
CC(=O)N[C@@H]1CC[C@@H](NC(=O)c2c(C)[nH]c3c(-c4cc(C(F)F)ccc4OCC4CC4)ncnc23)[C@H](F)C1 (relative stereo) [Example P159, N-[(1R*,2R*,4R*)-4-(Acetylamino)-2-fluorocyclohexyl]-4-[2-(cyclopropylmethoxy)-5-(difluoromethyl)phenyl]-6-methyl-5H-pyrrolo[3,2-d]pyrimidine-7-carboxamide] | < 1 | < 100
CCC(=O)N[C@@H]1CC[C@@H](NC(=O)c2c(C)[nH]c3c(-c4cc(C(F)F)ccc4OCC4CC4)ncnc23)[C@H](F)C1 (relative stereo) [Example P160, 4-[2-(Cyclopropylmethoxy)-5-(difluoromethyl)phenyl]-N-[(1R*,2R*,4R*)-2-fluoro-4-(propanoylamino)cyclohexyl]-6-methyl-5H-pyrrolo[3,2-d]pyrimidine-7-carboxamide] | < 1 | < 100
COCC(=O)N[C@@H]1CC[C@@H](NC(=O)c2c(C)[nH]c3c(-c4cc(C(F)F)ccc4OCC4CC4)ncnc23)[C@H](F)C1 (relative stereo) [Example P161, 4-[2-(Cyclopropylmethoxy)-5-(difluoromethyl)phenyl]-N-{(1R*,2R*,4R*)-2-fluoro-4-[(methoxyacetyl)amino]cyclohexyl}-6-methyl-5H-pyrrolo[3,2-d]pyrimidine-7-carboxamide] | < 1 | < 100
CC(=O)N[C@H]1CC[C@H](NC(=O)c2c(C)[nH]c3c(-c4cc(C(F)F)ccc4OCC4CC4)ncnc23)[C@H](F)C1 (relative stereo) [Example P169, N-[(1S*,2R*,4S*)-4-(Acetylamino)-2-fluorocyclohexyl]-4-[2-(cyclopropylmethoxy)-5-(difluoromethyl)phenyl]-6-methyl-5H-pyrrolo[3,2-d]pyrimidine-7-carboxamide] | < 1 | < 100
CCC(=O)N[C@H]1CC[C@H](NC(=O)c2c(C)[nH]c3c(-c4cc(C(F)F)ccc4OCC4CC4)ncnc23)[C@H](F)C1 (relative stereo) [Example P170, 4-[2-(Cyclopropylmethoxy)-5-(difluoromethyl)phenyl]-N-[(1S*,2R*,4S*)-2-fluoro-4-(propanoylamino)cyclohexyl]-6-methyl-5H-pyrrolo[3,2-d]pyrimidine-7-carboxamide] | < 1 | < 100
COCC(=O)N[C@H]1CC[C@H](NC(=O)c2c(C)[nH]c3c(-c4cc(C(F)F)ccc4OCC4CC4)ncnc23)[C@H](F)C1 (relative stereo) [Example P171, 4-[2-(Cyclopropylmethoxy)-5-(difluoromethyl)phenyl]-N-{(1S*,2R*,4S*)-2-fluoro-4-[(methoxyacetyl)amino]cyclohexyl}-6-methyl-5H-pyrrolo[3,2-d]pyrimidine-7-carboxamide] | < 1 | < 100
COCC(=O)N[C@H]1CC[C@H](NC(=O)c2c(C)[nH]c3c(-c4cc(C(F)F)ccc4OCC4CC4)ncnc23)C[C@@H]1C (relative stereo) [Example P191, 4-[2-(Cyclopropylmethoxy)-5-(difluoromethyl)phenyl]-N-{(1S*,3S*,4S*)-4-[(methoxyacetyl)amino]-3-methylcyclohexyl}-6-methyl-5H-pyrrolo[3,2-d]pyrimidine-7-carboxamide] | < 1 | < 100
CC(=O)N[C@H]1CC[C@H](NC(=O)c2c(C)[nH]c3c(-c4cc(C(F)F)ccc4OCC4CC4)ncnc23)C[C@H]1F (relative stereo) [Example P199, N-[(1S*,3R*,4S*)-4-(Acetylamino)-3-fluorocyclohexyl]-4-[2-(cyclopropylmethoxy)-5-(difluoromethyl)phenyl]-6-methyl-5H-pyrrolo[3,2-d]pyrimidine-7-carboxamide] | < 1 | < 100
CCC(=O)N[C@H]1CC[C@H](NC(=O)c2c(C)[nH]c3c(-c4cc(C(F)F)ccc4OCC4CC4)ncnc23)C[C@H]1F (relative stereo) [Example P200, 4-[2-(Cyclopropylmethoxy)-5-(difluoromethyl)phenyl]-N-[(1S*,3R*,4S*)-3-fluoro-4-(propanoylamino)cyclohexyl]-6-methyl-5H-pyrrolo[3,2-d]pyrimidine-7-carboxamide] | < 1 | < 100
COCC(=O)N[C@H]1CC[C@H](NC(=O)c2c(C)[nH]c3c(-c4cc(C(F)F)ccc4OCC4CC4)ncnc23)C[C@H]1F (relative stereo) [Example P201, 4-[2-(Cyclopropylmethoxy)-5-(difluoromethyl)phenyl]-N-{(1S*,3R*,4S*)-3-fluoro-4-[(methoxyacetyl)amino]cyclohexyl}-6-methyl-5H-pyrrolo[3,2-d]pyrimidine-7-carboxamide] | < 1 | < 100
CC(=O)N[C@H]1CC[C@H](NC(=O)c2c(C)[nH]c3c(-c4cc(C(F)F)ccc4OCC4CC4)ncnc23)C[C@@H]1F (relative stereo) [Example P209, N-[(1S*,3S*,4S*)-4-(Acetylamino)-3-fluorocyclohexyl]-4-[2-(cyclopropylmethoxy)-5-(difluoromethyl)phenyl]-6-methyl-5H-pyrrolo[3,2-d]pyrimidine-7-carboxamide] | < 1 | < 100
CCC(=O)N[C@H]1CC[C@H](NC(=O)c2c(C)[nH]c3c(-c4cc(C(F)F)ccc4OCC4CC4)ncnc23)C[C@@H]1F (relative stereo) [Example P210, 4-[2-(Cyclopropylmethoxy)-5-(difluoromethyl)phenyl]-N-[(1S*,3S*,4S*)-3-fluoro-4-(propanoylamino)cyclohexyl]-6-methyl-5H-pyrrolo[3,2-d]pyrimidine-7-carboxamide] | < 1 | < 100
COCC(=O)N[C@H]1CC[C@H](NC(=O)c2c(C)[nH]c3c(-c4cc(C(F)F)ccc4OCC4CC4)ncnc23)C[C@@H]1F (relative stereo) [Example P211, 4-[2-(Cyclopropylmethoxy)-5-(difluoromethyl)phenyl]-N-{(1S*,3S*,4S*)-3-fluoro-4-[(methoxyacetyl)amino]cyclohexyl}-6-methyl-5H-pyrrolo[3,2-d]pyrimidine-7-carboxamide] | < 1 | < 100
CC(=O)N1CCC(NC(=O)c2c(C)[nH]c3c(-c4cc(F)ccc4OCC4CC4)ncnc23)CC1 [Example E37, 4-(2-Cyclopropylmethoxy-5-fluoro-phenyl)-6-methyl-5H-pyrrolo[3,2-d]pyrimidine-7-carboxylic acid (1-acetyl-piperidin-4-yl)-amide] | < 1 | 100 to 1000
CCC(=O)N1CCC(NC(=O)c2c(C)[nH]c3c(-c4cc(F)ccc4OCC4CC4)ncnc23)CC1 [Example E38, 4-[2-(cyclopropylmethoxy)-5-fluorophenyl]-6-methyl-N-(1-propionylpiperidin-4-yl)-5H-pyrrolo[3,2-d]pyrimidine-7-carboxamide] | < 1 | 100 to 1000
